For assay [1], the target named is T1, KSR and CRAF dimer (Homo sapiens, UniProt P04049).
T1 construct: expressed in transfected cells; host or cells: 293T cells
As to the kind of experiment: Co-immunoprecipitation of KSR/CRAF dimers in drug-treated cells. The format is cell-based. To be noted: cells overexpressing FLAG-KSR and myc-CRAF, drug for 1 hour, FLAG-KSR immunoprecipitates immunoblotted for CRAF (myc). In general terms: Immunoblotting shows a protein as a band on a membrane.
Protocol: (§1) Dimerization experiments: For most experiments, constructs for wild-type and mutated BRAF, CRAF and KSR1 were appended with epitope tags (FLAG, 6× His, Myc, GFP) and were expressed by transient transfection into 293T cells. Cells were lysed in a buffer containing 1% NP40 and 0.1% deoxycholate. Cells were pretreated with drugs for 1 hour prior to lysis. Immunoprecipitates were analyzed by gel electrophoresis and immunoblotted after transfer to nitrocellulose membranes using standard methods.
(§2) Cells grown in serum, expressing combinations of KSR, BRAF and CRAF, were treated with both drugs. Co-immunoprecipitations were then performed to examine dimer formation.
(§3) KSR immunoprecipitates were prepared from cells overexpressing FLAG-KSR and BRAF after treatment with the indicated drug for 1 hour and immunoblotted using antibodies to BRAF.

Assay [2] has as its target KSR kinase activity towards MEK (Homo sapiens, UniProt P04049). The settings on record: cells co-expressing KSR and CRAF treated with 10 μM for one hour; immunoprecipitates pre-treated with 50 μM PLX.
Protocol: Kinase reactions: Cells transfected with various constructs were treated or not with PLX4720 for 1-2 hours. Cells were lysed with 1% NP40 and immunoprecipitates prepared. In vitro kinase reactions were performed in a standard buffer with 10 mM MgCl2, with 1 ug of kinase dead MEK, and 100 uM cold ATP. In some experiments, to inhibit contaminating Raf activity, 50 uM PLX4720 was preincubated with the reactions.
To test whether KSR might be activated by CRAF, we co-expressed KSR and CRAF and induced dimerization of CRAF with KSR by adding a low dose (10 μM) of PLX4720. KSR immunoprecipitates were then prepared and tested for kinase activity in vitro. To inhibit any contaminating RAF kinase activity co-precipitating with KSR, we preincubated the immunoprecipitates with an inhibitory dose of PLX4720 (50 μM). […] Cells were co-transfected with WT or ATP binding deficient KSR and CRAF and immunoprecipitates prepared after cells were treated with an activating dose of PLX (10 μM) for one hour. Immunoprecipitates were prepared, pre-treated with 50 μM PLX to inhibit co-precipitating RAF activity and then tested for kinase activity using purified MEK.
The target in assay [3] is BRAF/CRAF dimers (Homo sapiens, UniProt P04049+P15056). The settings on record: cells overexpressing myc-CRAF and BRAF, drug for 1 hour, CRAF immunoprecipitates immunoblotted for BRAF.
Protocol: as §1, §2, §3
Assay [4] concerns the target FLAG-KSR and BRAF dimer (Homo sapiens, UniProt P15056). In words: Co-immunoprecipitation of KSR/BRAF dimers in drug-treated cells. The assay is classed as cell-based. To be noted: cells overexpressing FLAG-KSR and BRAF, drug for 1 hour, KSR immunoprecipitates immunoblotted for BRAF.
Protocol: as §1, §2, §3
In assay [5] the test system is MEK phosphorylation (pMEK). As to the kind of experiment: MEK activation (pMEK immunoblot) in cells co-expressing KSR and CRAF. To be noted: saturating dose, 2 hours. The assay is classed as cell-based.
Protocol: Kinase reactions: Cells transfected with various constructs were treated or not with PLX4720 for 1-2 hours. Cells were lysed with 1% NP40 and immunoprecipitates prepared.
In these experiments, we tested the function of the CRAF/KSR dimer by co-expressing both proteins and using PLX4720 (FIG. 1F) or GDC0879 (data not shown) to induce dimer formation between the two proteins. […] Cells expressing the indicated constructs were treated with a saturating dose of PLX for 2 hours before cell lysates were prepared and analyzed for pMEK by immunoblotting.

Chain of BRAF/CRAF dimers (P15056 whole entry): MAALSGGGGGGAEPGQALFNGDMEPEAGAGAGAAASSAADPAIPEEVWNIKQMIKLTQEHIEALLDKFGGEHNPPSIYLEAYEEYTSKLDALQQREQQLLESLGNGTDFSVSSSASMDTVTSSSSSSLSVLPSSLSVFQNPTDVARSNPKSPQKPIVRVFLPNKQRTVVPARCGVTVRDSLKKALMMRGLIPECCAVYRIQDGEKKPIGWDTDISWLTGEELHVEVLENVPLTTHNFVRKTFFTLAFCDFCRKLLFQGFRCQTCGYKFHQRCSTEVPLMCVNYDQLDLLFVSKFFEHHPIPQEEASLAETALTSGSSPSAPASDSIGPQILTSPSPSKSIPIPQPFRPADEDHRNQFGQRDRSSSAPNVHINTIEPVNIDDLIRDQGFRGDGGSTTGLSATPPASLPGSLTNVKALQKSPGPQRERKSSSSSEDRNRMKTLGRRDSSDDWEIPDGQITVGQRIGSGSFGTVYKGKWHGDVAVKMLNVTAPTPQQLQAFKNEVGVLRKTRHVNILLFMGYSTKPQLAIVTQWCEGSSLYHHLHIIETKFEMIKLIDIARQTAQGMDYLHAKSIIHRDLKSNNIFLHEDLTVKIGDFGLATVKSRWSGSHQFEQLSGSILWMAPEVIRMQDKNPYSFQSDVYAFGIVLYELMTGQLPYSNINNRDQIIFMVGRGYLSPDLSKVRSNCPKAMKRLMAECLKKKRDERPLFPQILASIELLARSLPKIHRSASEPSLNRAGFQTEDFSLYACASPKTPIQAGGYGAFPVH
Chain of BRAF/CRAF dimers (P04049 whole entry): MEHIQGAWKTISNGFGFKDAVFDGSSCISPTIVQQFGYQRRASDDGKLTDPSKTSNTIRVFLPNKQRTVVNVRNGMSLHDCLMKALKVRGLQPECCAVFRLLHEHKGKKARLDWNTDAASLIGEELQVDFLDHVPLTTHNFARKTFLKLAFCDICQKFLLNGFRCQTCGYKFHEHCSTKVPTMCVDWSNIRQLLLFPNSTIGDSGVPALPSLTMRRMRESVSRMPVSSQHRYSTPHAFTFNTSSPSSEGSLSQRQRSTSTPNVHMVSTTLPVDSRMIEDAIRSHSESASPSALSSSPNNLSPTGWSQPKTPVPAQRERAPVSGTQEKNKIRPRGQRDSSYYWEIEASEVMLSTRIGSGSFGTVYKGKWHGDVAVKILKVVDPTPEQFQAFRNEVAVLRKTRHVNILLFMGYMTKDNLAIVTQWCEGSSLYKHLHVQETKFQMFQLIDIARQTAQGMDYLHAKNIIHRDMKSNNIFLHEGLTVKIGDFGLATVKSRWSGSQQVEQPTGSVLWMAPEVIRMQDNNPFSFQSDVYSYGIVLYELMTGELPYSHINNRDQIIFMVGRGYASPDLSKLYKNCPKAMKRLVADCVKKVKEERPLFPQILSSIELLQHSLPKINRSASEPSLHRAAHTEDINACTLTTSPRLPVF
Chain of FLAG-KSR and BRAF dimer (P15056 whole entry): as the sequence (P15056 whole entry) above
Chain of FLAG-KSR and BRAF dimer (Q61097 whole entry partner): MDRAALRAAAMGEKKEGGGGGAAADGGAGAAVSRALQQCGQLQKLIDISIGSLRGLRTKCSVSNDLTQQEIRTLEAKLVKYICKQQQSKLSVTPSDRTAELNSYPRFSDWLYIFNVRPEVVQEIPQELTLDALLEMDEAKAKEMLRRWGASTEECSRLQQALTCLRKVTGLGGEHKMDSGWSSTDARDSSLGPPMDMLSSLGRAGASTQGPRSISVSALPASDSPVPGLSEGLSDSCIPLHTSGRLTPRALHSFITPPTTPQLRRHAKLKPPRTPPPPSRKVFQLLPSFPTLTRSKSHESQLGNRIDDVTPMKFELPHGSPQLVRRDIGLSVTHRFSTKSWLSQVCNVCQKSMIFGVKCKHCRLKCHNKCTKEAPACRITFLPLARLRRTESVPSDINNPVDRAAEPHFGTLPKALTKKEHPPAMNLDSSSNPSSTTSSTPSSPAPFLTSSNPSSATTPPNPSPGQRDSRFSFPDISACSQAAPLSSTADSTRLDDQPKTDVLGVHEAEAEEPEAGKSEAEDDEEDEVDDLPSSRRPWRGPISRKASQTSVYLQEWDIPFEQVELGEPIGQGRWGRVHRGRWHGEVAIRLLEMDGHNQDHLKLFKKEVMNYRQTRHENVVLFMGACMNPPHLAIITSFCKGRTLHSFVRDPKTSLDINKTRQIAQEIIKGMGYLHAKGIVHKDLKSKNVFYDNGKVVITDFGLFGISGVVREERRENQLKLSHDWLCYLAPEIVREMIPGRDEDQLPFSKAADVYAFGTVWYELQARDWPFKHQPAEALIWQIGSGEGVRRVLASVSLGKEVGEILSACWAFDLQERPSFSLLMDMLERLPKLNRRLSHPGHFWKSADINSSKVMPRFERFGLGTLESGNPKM
Chain of KSR kinase activity towards MEK (Q61097 whole entry partner): as above
Chain of KSR kinase activity towards MEK (P04049 whole entry): as the sequence (P04049 whole entry) above
T1 sequence (P04049 whole entry): as above
T1 sequence (Q61097 whole entry partner): as the sequence (Q61097 whole entry partner) above

For the compound `CCCS(=O)(=O)Nc1ccc(F)c(C(=O)c2c[nH]c3ncc(Cl)cc23)c1F` [PLX4720], in assay [1], the “dimer formation between KSR and CRAF” value is “induce dimer formation between KSR and CRAF”. The “kinase activity towards MEK in KSR immunoprecipitates” value in assay [2] is recorded as “induced kinase activity towards MEK in the KSR immunoprecipitates”. The “dimer formation between BRAF and CRAF” value in assay [3] was “but not PLX4720 induces dimers between BRAF and CRAF”. The “dimer formation between KSR and BRAF” value in assay [4] is “but not PLX4720 can induce dimer formation between FLAG-KSR and BRAF”. The “MEK activation (pMEK)” value in assay [5] is “MEK was still activated”.

Values taken from US8900845B2, “Methods and uses of KSR kinase, and mutations thereof” (Washington University, priority 2011, dated 2014).
